Calls of active or inactive are those of the source. Rule as the data show it, for most assays here: actives have a measured Kd and inactives only a lower limit.
Columns and labels:
[1] = target: Eukaryotic translation initiation factor 2-alpha kinase 1 (Homo sapiens, UniProt Q9BQI3)
[2] = target: Mitogen-activated protein kinase kinase kinase kinase 1 (Homo sapiens, UniProt Q92918)
[3] = target: Serine/threonine-protein kinase N1 (Homo sapiens, UniProt Q16512)
[4] = target: T1, Dual specificity mitogen-activated protein kinase kinase 5 (Homo sapiens, UniProt Q13163)
T1 sequence (Q13163 whole entry): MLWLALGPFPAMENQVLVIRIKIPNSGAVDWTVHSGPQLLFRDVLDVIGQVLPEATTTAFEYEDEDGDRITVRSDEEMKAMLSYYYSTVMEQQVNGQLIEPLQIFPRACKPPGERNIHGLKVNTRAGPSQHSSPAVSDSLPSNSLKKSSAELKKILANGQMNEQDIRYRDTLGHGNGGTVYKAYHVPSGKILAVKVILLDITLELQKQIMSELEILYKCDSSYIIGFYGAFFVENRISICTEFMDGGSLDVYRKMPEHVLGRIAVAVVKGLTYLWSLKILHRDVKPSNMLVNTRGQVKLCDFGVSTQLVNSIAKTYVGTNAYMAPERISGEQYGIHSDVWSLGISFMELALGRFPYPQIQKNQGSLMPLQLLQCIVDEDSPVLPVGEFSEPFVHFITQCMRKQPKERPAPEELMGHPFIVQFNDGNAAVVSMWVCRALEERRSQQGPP

[5] = target: T2, EKC/KEOPS complex subunit TP53RK (Homo sapiens, UniProt Q96S44)
T2 sequence (Q96S44 whole entry): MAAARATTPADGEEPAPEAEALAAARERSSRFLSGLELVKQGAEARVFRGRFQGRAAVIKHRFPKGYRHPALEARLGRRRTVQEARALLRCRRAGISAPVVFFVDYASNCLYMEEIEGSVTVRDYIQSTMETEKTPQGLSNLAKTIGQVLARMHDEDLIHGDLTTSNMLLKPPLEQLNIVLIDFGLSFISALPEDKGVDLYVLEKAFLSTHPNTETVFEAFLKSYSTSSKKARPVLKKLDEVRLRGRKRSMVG

[6] = target: ATP-dependent RNA helicase DDX3X (Homo sapiens, UniProt O00571)
ATP-dependent RNA helicase DDX3X, sequence (O00571 whole entry): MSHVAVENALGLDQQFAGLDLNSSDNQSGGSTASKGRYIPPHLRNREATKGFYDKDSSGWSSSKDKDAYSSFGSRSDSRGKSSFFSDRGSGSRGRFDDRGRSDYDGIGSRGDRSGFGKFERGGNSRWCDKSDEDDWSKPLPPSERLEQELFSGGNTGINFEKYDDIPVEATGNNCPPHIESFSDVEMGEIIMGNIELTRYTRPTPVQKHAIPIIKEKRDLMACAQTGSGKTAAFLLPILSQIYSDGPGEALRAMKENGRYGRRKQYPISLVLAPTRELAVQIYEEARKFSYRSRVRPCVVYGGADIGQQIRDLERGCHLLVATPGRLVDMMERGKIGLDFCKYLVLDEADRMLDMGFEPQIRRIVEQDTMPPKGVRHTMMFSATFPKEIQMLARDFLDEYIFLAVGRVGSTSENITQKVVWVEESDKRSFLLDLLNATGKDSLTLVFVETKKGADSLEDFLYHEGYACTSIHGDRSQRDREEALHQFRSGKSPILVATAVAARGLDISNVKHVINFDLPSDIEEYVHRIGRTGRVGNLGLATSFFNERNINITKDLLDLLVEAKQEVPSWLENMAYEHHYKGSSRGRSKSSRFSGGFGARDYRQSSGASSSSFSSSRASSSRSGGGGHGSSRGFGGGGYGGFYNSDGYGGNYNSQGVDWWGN

[7] = target: T3, Serine/threonine-protein kinase Nek9 (Homo sapiens, UniProt Q8TD19)
T3 sequence (Q8TD19 whole entry): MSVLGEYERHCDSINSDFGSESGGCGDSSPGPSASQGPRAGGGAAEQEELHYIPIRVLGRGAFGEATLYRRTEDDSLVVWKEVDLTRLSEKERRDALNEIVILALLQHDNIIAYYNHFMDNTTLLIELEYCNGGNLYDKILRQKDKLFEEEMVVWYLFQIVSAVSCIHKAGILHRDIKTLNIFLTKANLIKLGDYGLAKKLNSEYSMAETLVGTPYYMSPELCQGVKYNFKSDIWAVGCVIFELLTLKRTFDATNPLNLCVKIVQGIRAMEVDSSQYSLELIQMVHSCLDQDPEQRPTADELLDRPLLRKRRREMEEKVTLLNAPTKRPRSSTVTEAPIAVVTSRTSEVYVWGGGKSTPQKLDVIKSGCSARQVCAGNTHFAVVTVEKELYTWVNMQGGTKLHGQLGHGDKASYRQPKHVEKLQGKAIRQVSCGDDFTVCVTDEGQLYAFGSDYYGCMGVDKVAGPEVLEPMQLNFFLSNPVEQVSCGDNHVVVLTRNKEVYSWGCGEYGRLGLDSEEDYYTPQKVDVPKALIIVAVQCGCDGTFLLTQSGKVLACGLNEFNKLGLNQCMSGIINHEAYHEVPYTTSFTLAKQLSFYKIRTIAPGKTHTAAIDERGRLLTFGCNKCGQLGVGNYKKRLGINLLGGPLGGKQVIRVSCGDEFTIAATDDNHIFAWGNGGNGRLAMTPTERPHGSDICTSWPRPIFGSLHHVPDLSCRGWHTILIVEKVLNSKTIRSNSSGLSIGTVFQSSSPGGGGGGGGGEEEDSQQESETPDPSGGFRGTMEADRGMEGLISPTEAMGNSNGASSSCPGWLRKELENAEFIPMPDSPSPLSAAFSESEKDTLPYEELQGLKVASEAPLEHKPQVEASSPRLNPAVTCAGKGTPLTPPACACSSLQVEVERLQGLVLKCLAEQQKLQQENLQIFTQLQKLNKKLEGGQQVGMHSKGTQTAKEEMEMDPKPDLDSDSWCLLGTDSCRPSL

[8] = target: T4, ATP-dependent 6-phosphofructokinase, platelet type (Homo sapiens, UniProt Q01813)
T4 sequence (Q01813 whole entry): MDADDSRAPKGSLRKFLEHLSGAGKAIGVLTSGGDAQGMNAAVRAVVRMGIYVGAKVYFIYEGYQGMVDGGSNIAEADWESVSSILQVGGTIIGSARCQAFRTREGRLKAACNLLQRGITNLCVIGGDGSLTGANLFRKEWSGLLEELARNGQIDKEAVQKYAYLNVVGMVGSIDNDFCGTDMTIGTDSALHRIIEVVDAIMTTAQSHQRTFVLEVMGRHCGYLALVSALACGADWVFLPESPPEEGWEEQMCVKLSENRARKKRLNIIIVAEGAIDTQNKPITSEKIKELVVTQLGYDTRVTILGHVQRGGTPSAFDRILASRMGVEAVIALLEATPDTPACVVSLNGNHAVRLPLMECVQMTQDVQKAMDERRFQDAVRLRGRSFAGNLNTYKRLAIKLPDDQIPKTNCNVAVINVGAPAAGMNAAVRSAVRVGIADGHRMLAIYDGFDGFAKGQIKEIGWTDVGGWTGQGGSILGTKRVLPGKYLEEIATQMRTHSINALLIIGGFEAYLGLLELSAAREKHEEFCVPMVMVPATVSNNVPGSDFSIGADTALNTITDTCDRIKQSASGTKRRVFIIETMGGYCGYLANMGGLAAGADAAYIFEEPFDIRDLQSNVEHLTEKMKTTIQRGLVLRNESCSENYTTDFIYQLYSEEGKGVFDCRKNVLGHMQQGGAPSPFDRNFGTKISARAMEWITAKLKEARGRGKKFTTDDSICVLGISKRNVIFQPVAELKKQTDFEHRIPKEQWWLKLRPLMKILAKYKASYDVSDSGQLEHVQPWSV

[9] = target: TRAF2 and NCK-interacting protein kinase (Homo sapiens, UniProt Q9UKE5)
TRAF2 and NCK-interacting protein kinase, sequence (Q9UKE5 whole entry): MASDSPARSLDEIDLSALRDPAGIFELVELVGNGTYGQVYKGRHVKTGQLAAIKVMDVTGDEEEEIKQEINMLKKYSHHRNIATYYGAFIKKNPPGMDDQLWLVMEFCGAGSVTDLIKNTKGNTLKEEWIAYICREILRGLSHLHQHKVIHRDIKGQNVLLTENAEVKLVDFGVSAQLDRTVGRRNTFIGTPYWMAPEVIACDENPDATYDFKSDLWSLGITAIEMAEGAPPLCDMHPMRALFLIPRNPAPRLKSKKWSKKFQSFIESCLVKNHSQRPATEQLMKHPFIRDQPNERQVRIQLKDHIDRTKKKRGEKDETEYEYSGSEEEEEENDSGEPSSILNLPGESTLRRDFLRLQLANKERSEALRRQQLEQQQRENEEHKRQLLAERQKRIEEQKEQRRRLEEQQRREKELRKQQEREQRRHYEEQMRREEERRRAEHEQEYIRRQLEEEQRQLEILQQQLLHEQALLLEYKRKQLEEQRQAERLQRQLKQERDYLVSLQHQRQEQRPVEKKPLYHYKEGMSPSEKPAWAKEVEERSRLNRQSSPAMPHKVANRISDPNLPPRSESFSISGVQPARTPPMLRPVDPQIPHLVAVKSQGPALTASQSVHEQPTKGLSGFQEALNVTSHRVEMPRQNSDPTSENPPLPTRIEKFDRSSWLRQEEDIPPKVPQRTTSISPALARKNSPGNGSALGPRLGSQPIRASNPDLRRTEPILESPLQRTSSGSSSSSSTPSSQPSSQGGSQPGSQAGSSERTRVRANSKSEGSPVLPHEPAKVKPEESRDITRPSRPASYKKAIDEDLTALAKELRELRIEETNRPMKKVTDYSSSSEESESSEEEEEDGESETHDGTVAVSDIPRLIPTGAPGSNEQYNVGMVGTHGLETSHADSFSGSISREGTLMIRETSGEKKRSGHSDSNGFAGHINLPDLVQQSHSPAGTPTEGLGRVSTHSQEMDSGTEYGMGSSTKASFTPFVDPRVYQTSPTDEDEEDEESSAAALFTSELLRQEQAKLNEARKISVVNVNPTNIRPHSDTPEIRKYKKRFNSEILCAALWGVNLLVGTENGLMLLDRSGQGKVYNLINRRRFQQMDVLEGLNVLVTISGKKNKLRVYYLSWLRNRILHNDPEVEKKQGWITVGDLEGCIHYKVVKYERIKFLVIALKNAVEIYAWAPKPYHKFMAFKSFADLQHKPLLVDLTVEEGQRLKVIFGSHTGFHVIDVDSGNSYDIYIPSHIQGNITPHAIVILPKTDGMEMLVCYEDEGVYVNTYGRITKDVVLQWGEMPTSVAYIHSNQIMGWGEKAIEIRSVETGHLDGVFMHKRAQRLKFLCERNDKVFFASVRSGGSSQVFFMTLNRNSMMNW

[10] = target: Cyclin-dependent kinase 7 (Homo sapiens, UniProt P50613)
Cyclin-dependent kinase 7, sequence (P50613 whole entry): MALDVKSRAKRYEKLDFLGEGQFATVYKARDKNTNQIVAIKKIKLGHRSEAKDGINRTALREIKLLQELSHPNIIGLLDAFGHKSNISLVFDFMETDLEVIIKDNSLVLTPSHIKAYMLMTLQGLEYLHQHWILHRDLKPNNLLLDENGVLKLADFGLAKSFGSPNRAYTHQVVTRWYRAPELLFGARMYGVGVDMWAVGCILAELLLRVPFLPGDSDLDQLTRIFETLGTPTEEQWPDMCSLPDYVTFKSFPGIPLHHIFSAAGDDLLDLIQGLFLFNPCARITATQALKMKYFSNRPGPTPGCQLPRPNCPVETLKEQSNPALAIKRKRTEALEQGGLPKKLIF

[11] = target: RAC-gamma serine/threonine-protein kinase (Homo sapiens, UniProt Q9Y243)
RAC-gamma serine/threonine-protein kinase, sequence (Q9Y243 whole entry): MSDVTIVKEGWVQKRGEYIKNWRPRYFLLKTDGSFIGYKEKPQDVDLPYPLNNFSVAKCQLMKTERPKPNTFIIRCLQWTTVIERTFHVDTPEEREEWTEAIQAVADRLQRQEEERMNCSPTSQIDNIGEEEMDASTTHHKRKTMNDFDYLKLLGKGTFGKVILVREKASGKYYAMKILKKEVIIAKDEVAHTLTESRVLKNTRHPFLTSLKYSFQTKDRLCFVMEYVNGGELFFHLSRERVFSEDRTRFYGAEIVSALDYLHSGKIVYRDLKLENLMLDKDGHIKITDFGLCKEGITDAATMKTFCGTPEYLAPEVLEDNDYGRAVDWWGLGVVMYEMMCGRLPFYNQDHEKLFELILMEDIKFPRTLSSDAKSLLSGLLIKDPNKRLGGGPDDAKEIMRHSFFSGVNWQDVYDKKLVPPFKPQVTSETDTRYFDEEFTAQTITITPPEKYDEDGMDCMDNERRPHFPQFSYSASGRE

[12] = target: Ribosomal protein S6 kinase alpha-3 (Homo sapiens, UniProt P51812)
Also: in the data inactive means no Kd found up to 30 µM.

Serine/threonine-protein kinase N1, sequence (Q16512 whole entry): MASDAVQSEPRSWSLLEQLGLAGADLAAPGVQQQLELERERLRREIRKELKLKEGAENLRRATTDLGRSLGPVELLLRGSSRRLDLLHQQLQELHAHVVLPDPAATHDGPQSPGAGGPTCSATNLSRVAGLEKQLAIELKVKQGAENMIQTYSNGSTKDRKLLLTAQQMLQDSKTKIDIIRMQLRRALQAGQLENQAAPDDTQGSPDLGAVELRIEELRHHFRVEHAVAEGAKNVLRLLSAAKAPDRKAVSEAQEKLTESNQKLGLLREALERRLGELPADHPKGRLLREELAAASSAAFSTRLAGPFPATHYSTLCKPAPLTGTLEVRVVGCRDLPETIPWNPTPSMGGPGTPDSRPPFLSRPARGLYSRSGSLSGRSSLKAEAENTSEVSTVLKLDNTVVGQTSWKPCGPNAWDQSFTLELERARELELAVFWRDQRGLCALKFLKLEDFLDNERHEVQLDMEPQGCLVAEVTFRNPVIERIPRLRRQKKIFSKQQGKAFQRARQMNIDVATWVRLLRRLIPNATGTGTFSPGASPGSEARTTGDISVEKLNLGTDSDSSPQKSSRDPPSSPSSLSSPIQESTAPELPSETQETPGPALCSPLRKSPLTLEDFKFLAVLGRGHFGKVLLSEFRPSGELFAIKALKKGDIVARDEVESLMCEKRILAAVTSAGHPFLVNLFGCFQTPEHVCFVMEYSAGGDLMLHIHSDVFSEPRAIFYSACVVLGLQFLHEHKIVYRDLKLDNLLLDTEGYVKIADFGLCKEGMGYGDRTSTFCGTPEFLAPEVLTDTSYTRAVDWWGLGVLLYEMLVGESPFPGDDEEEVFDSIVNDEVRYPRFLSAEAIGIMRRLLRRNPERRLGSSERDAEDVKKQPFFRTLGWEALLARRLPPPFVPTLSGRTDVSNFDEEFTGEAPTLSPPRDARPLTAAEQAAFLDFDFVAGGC
Mitogen-activated protein kinase kinase kinase kinase 1, sequence (Q92918 whole entry): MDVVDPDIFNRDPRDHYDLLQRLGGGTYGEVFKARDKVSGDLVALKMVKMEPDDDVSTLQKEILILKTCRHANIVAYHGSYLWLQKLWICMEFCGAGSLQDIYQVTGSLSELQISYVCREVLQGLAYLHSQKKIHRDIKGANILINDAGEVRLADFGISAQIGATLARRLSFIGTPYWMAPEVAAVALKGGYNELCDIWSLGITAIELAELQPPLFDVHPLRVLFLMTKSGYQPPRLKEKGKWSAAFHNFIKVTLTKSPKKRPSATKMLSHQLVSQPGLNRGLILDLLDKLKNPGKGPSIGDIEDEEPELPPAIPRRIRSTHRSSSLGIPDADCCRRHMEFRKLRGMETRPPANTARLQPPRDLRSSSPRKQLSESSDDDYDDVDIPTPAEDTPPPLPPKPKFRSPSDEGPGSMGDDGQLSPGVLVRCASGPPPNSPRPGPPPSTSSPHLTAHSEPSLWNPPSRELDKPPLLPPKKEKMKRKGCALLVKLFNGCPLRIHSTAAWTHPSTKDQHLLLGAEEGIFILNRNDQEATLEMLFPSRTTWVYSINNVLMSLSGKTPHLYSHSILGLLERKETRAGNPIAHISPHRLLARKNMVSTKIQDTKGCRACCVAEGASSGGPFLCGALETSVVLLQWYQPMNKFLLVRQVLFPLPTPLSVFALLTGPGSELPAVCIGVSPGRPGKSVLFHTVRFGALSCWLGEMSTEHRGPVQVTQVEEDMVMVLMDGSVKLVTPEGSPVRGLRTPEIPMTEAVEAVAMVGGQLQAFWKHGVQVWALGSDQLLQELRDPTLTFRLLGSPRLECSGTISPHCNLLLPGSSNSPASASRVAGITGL

Compound	Kd [5]	Kd [6]	Kd [1]	Kd [2]	Kd [3]	Kd [4]	Kd [7]	Kd [8]	Kd [9]	Kd [10]	Kd [11]	Kd [12]
CN(c1ncccc1CNc1nc(Nc2ccc3c(c2)CC(=O)N3)ncc1C(F)(F)F)S(C)(=O)=O [PF-00562271]	> 30 µM (inactive)	> 30 µM (inactive)	> 30 µM (inactive)	3.98 µM (active)	7.96 µM (active)	> 30 µM (inactive)	> 30 µM (inactive)	> 30 µM (inactive)				
C[C@]1(O)C[C@@H](c2nc(-c3ccc4ccc(-c5ccccc5)nc4c3)c3c(N)nccn32)C1 [LINSITINIB]	> 30 µM (inactive)	> 30 µM (inactive)	> 30 µM (inactive)	> 30 µM (inactive)	> 30 µM (inactive)	6.56 µM (active)	> 30 µM (inactive)	> 30 µM (inactive)	> 30 µM (inactive)	> 30 µM (inactive)		
CC(C)CC(=O)Nc1[nH]nc2c1CN(C(=O)C1CCN(C)CC1)C2(C)C [PHA-793887]	> 30 µM (inactive)	> 30 µM (inactive)	> 30 µM (inactive)	> 30 µM (inactive)		> 30 µM (inactive)	> 30 µM (inactive)	> 30 µM (inactive)		0.008 µM (active)	> 30 µM (inactive)	> 30 µM (inactive)
CC1(COc2ccc3c(c2)ncn3-c2ccc3cccc(N4CCC(N)CC4)c3n2)COC1 [CRENOLANIB]	> 30 µM (inactive)	> 30 µM (inactive)	> 30 µM (inactive)	> 30 µM (inactive)	0.165 µM (active)		> 30 µM (inactive)	> 30 µM (inactive)	0.107 µM		> 30 µM (inactive)	> 30 µM (inactive)
C=CCn1c(=O)c2cnc(Nc3ccc(N4CCN(C)CC4)cc3)nc2n1-c1cccc(C(C)(C)O)n1 [ADAVOSERTIB]	> 30 µM (inactive)	> 30 µM (inactive)	> 30 µM (inactive)	> 30 µM (inactive)	> 30 µM (inactive)	> 30 µM (inactive)	> 30 µM (inactive)	> 30 µM (inactive)	> 30 µM (inactive)		> 30 µM (inactive)	
CNC(=O)c1ccc(Nc2ncc(C(F)(F)F)c(NCc3nccnc3N(C)S(C)(=O)=O)n2)cc1 [DEFACTINIB]	> 30 µM (inactive)	> 30 µM (inactive)	> 30 µM (inactive)	3.13 µM (active)	> 30 µM (inactive)	> 30 µM (inactive)	> 30 µM (inactive)	> 30 µM (inactive)	> 30 µM (inactive)		> 30 µM (inactive)	> 30 µM (inactive)
CCN1CCN(Cc2ccc(Nc3ncc(F)c(-c4cc(F)c5nc(C)n(C(C)C)c5c4)n3)nc2)CC1 [ABEMACICLIB]	> 30 µM (inactive)	> 30 µM (inactive)	4.84 µM (active)	> 30 µM (inactive)	> 30 µM (inactive)	> 30 µM (inactive)	> 30 µM (inactive)	> 30 µM (inactive)	> 30 µM (inactive)		> 30 µM (inactive)	> 30 µM (inactive)
N#CCNC(=O)c1ccc(-c2ccnc(Nc3ccc(N4CCOCC4)cc3)n2)cc1 [MOMELOTINIB]	> 30 µM (inactive)	> 30 µM (inactive)		> 30 µM (inactive)	> 30 µM (inactive)	> 30 µM (inactive)	0.474 µM (active)	> 30 µM (inactive)		> 30 µM (inactive)	> 30 µM (inactive)	> 30 µM (inactive)
O=S(=O)(c1cccc2cnccc12)N1CCCNCC1 [FASUDIL]	> 30 µM (inactive)	> 30 µM (inactive)	> 30 µM (inactive)	> 30 µM (inactive)	0.841 µM (active)	> 30 µM (inactive)	> 30 µM (inactive)	> 30 µM (inactive)	> 30 µM (inactive)			

Continued, in another order:

Kd [5]	Kd [6]	Compound	Kd [1]	Kd [2]	Kd [3]	Kd [4]	Kd [7]	Kd [8]	Kd [9]	Kd [10]	Kd [11]	Kd [12]
> 30 µM (inactive)	> 30 µM (inactive)	Cn1c(=O)n(-c2ccc(C(C)(C)C#N)cc2)c2c3cc(-c4cnc5ccccc5c4)ccc3ncc21 [DACTOLISIB]	> 30 µM (inactive)	> 30 µM (inactive)	> 30 µM (inactive)	> 30 µM (inactive)	> 30 µM (inactive)	> 30 µM (inactive)	> 30 µM (inactive)		> 30 µM (inactive)	
> 30 µM (inactive)	> 30 µM (inactive)	COc1cc2c(Oc3ccc4[nH]c(C)cc4c3F)ncnc2cc1OCCCN1CCCC1 [CEDIRANIB]						> 30 µM (inactive)				
> 30 µM (inactive)	> 30 µM (inactive)	COc1cc2c(N3CCN(C(=O)Nc4ccc(OC(C)C)cc4)CC3)ncnc2cc1OCCCN1CCCCC1 [TANDUTINIB]										
> 30 µM (inactive)	> 30 µM (inactive)	CN(C)C/C=C/C(=O)Nc1cc2c(Nc3ccc(F)c(Cl)c3)ncnc2cc1O[C@H]1CCOC1 [AFATINIB]										
> 30 µM (inactive)	> 30 µM (inactive)	Cn1cnc2c(F)c(Nc3ccc(Br)cc3Cl)c(C(=O)NOCCO)cc21 [SELUMETINIB]						> 30 µM (inactive)				
> 30 µM (inactive)	> 30 µM (inactive)	C[C@@]1(C(=O)Nc2ccc(F)nc2)CCCN1c1nc(Nc2cc(C3CC3)n[nH]2)c2cccn2n1 [BMS-754807]						> 30 µM (inactive)			> 30 µM (inactive)	
> 30 µM (inactive)	> 30 µM (inactive)	CC1(C)CNc2cc(NC(=O)c3cccnc3NCc3ccncc3)ccc21 [MOTESANIB]						> 30 µM (inactive)				
> 30 µM (inactive)	> 30 µM (inactive)	CCN(CCCOc1ccc2c(Nc3cc(CC(=O)Nc4cccc(F)c4)n[nH]3)ncnc2c1)CCOP(=O)(O)O [BARASERTIB]	> 30 µM (inactive)	> 30 µM (inactive)	> 30 µM (inactive)	0.082 µM (active)	> 30 µM (inactive)	> 30 µM (inactive)	> 30 µM (inactive)		> 30 µM (inactive)	

— ChEMBL document CHEMBL3991601, “The target landscape of clinical kinase drugs” (Science, 2017)
